Laboratory results reported in patent publication US20030148954A1, “Agents and methods for modulating activator protein-1-mediated cellular processes” (Wisconsin Alumni Research Foundation, priority 2001, published 2003).

Key:
human Aγ globin promoter = test: pGL3γLuc reporter, transient transfection of K562 cells; format: cell-based; settings: K562, TPA treatment
Description: (§1) Transient Transfections—K562 cells (5×10^5) were collected by centrifugation at 240×g for 8 min at 4° C. and resuspended in 4 ml of complete IMEM. Plasmid DNAs (1 μg of reporter and 2 μg of effector) were added to 150 μl of IMEM, incubated with Superfect (4 μl/1 μg DNA; Qiagen) for 10 min at room temperature and then added to cells.
(§2) For each transfection, cells were incubated for 26 h after transfection and then treated with TPA (final concentration: 5 nM) or the vehicle (DMSO). After incubating for another 12 or 16 h, cells were harvested and assayed for luciferase activity. Luciferase activity was normalized by the protein content of the lysates, determined by Bradford assay using γ-globulin as a standard.

AP-1 [1] = test: AP-1 luciferase reporter, transient transfection of K562 cells; format: cell-based, human; settings: K562, p1×AP1luc, no NIC-1
From the text: (§3) Plasmids—The pBabe-NIC-1 (pNIC-1) expression vector encoding constitutively active Notch-1 (NIC-1) was described previously (36,37,51). This vector was derived from the pBabe-puro retroviral vector and includes a cDNA sequence encoding amino acids 1759-2556 of human Notch-1 with a Myc tag fused to its carboxyl terminus. Human NIC-1 deletion mutants were generated by PCR using a full-length human Notch-1 expression vector as the template. The Notch-dependent reporter plasmid containing four CBF1 binding sites and an simian virus 40 promoter fused to luciferase (p4×CBF1luc) was described previously (52). The AP-1 reporter plasmid (p1×AP1luc) containing a collagenase promoter fragment (−73/+67) with a single AP-1 binding site in the luciferase reporter vector pGL2-basic (Promega) was described previously (53). The NF-κB reporter plasmid (p3×κBluc) containing three NF-κB binding sites and a minimal promoter fused to luciferase was a kind gift of Dr. Shigeki Miyamoto (University of Wisconsin Medical School). The pBabe-H-Ras(12V) expression vector encoding constitutively active H-Ras was a kind gift of Dr. Charming Der (University of North Carolina-Chapel Hill). This vector was derived from the pBabe-puro retroviral vector and includes a cDNA encoding H-Ras with a Gly to Val mutation at amino acid 12.
as §1, §2

AP-1 [2] = test: EMSA of AP-1 DNA binding activity in nuclear extracts; design: species or system human; settings: K562 cells treated with TPA
Description: K562-Babe and K562-NIC-1 cells were harvested by centrifugation for 10 min at 150×g. Cells were washed once with ice-cold PBS and resuspended in 1.5 volumes of nuclei lysis buffer (10 mM Tris-HCl, pH 7.5, 10 mM NaCl, 3 mM MgCl2, and 0.2% Nonidet P-40) on ice for 3 min. Nuclei were collected by centrifugation for 5 min at 600×g. Nuclei were washed by gentle resuspension in 1.5 volumes of nuclei wash buffer (10 mM Tris-HCl, pH 7.5, 10 mM NaCl, and 3 mM MgCl2) and then collected by centrifugation for 4 min at 600×g. […] Nuclei were extracted for 45 min at 4° C. with constant mixing. The suspension was then centrifuged for 30 min at 150,000×g. Aliquots of the supernatant were frozen on dry ice and stored at -80° C. The protein concentration as measured by the Bradford assay, with y-globulin as a standard ranged from 4 to 10 mg/ml. DTT (5 mM), phenylmethanesulfonyl fluoride (0.5 mM), leupeptin (20 μg/ml), β-glycerophosphate (800 μM), sodium vanadate (1 mM), and sodium molybdate (50 μM) were included in all buffers. Electrophoretic Mobility Shift Assay-EMSA assays were done as described previously (54). AP-1 DNA binding activity was measured by EMSA with a double-stranded end-labeled oligonucleotide [NT] containing a high affinity AP-1 binding site. […] DNA binding activity was quantitated by PhosphorImager analysis with ImageQuant software (Molecular Dynamics).

IL-8 = test: Northern blotting of IL-8 transcripts in K562-Babe and K562-NIC-1 cells; format: cell-based, human; settings: K562-Babe cells, 5 nM TPA 12 h
Description: (§4) Stable Transfection—K562 cells were stably transfected by electroporation with a Bio-Rad Gene pulser electroporator. Cells (5×10^6) were washed with ice-cold PBS, resuspended in 0.5 ml of ice-cold PBS, mixed with 5 μg linearized plasmid DNA, and subjected to electroporation (960 microfarad; 220 V) in a 0.4 cm-wide electroporation cuvette (BTX). pBabe and pNIC-1 were linearized with NotI. Cells were then added to 20 ml of complete IMEM, grown for 48 h, and diluted in complete IMEM containing 1.5 μg/ml puromycin (pools of K562-Babe and K562-NIC-1 cells). Stably transfected cells were analyzed for erythroid differentiation as soon as the pools were generated by benzidine staining to reduce the probability of phenotypic changes that may result from prolonged growth.
(§5) Northern Blotting—Total RNA from K562-Babe and K562-NIC-1 cells was extracted with Triazol (Life Technologies, Inc.). Ten μg of RNA per sample was electrophoresed on a 1% agarose, 6.6% formaldehyde gel and then transferred overnight to a Magnacharge nylon membrane (Osmonics). RNA was cross-linked to the membrane by UV irradiation. Membranes were prehybridized for 30 min at 60° C. in ExpressHyb hybridization solution (Clontech). […] Radioactivity was quantitated by PhosphorImager analysis with ImageQuant software (Molecular Dynamics).

CMV enhancer = test: pCMVβgal β-galactosidase reporter, transient transfection of K562 cells; format: cell-based, human; settings: K562, TPA treatment
Description: as §1
(§6) For each transfection, cells were incubated for 26 h after transfection and then treated with TPA (final concentration: 5 nM) or the vehicle (DMSO). […] Luciferase activity was normalized by the protein content of the lysates, determined by Bradford assay using γ-globulin as a standard.

NF-κB = NF-κB luciferase reporter (p3×κBluc), transient transfection of K562 cells; format: cell-based, human
From the text: as §3, with “The pBabe-H-Ras(12V) expression vector encoding constitutively active H-Ras was a kind gift of Dr. Charming Der (University of North Carolina-Chapel Hill). This vector was derived from the pBabe-puro retroviral vector and includes a cDNA encoding H-Ras with a Gly to Val mutation at amino acid 12.” left out
as §6

AP-1 [3] = test: AP-1 luciferase reporter, transient transfection of HeLa cells; format: cell-based, human
From the text: as §3, with “The pBabe-H-Ras(12V) expression vector encoding constitutively active H-Ras was a kind gift of Dr. Charming Der (University of North Carolina-Chapel Hill). This vector was derived from the pBabe-puro retroviral vector and includes a cDNA encoding H-Ras with a Gly to Val mutation at amino acid 12.” left out
as §6

MMP1 = test: Northern blotting of MMP1 transcripts in K562-Babe and K562-NIC-1 cells; format: cell-based, human; settings: K562-Babe cells, 5 nM TPA 12 h
Description: as §4, §5

## CCCCCCCCCCCCCC(=O)O[C@@H]1[C@@H](C)[C@@]2(O)[C@@H](C=C(CO)C[C@]3(O)C(=O)C(C)=C[C@@H]23)[C@@H]2C(C)(C)[C@]12OC(C)=O [TPA, reference compound]
Human Aγ globin promoter
  increase of pGL3γLuc activity: ~3 fold
AP-1 [1]
  induction of AP-1 reporter activity by the activator: strongly induced
AP-1 [2]
  induction of AP-1 DNA binding activity: strongly induced
IL-8
  induction of IL-8 transcript levels: strongly induced
CMV enhancer
  increase of pCMVβgal activity: strongly increased
NF-κB
  activation of NF-κB reporter gene by the activator: strongly activated
AP-1 [3]
  induction of AP-1 reporter activity by the activator: strongly induced
MMP1
  induction of MMP1 transcript levels: strongly induced
